Values of other authors in patent US20190053509A1, “NITROUS OXIDE MIXTURES AND METHODS OF USE” (Korvata Inc., priority 2015, published 2019).
Where two headings read alike, the source gives them in different places.

Experiments:
[1] = 101.3 kPa (1 atm); for Bunsen solubility coefficient in olive oil: olive oil at 22° C.; for Bunsen solubility coefficient in water: water at 0° C.
[2] = relative to nitrogen standardized to 1.0; from J Applied Physiology 1994; 76(1): 439-444

SMILES	Bunsen solubility coefficient in olive oil [1] [L gas/L]	Bunsen solubility coefficient in water [1] [L gas/L]	RNP (Relative Narcotic Potency) [2]	lipid solubility (25° C. and 36 psi) [mg/mL]	lipid solubility (25° C. and 181 psi) [mg/mL]
[Ne] [Ne, neon]	0.052	0.0101	0.3		
[He] [He, helium]	0.015	0.0078	0.045		
O=O [Example O2, oxygen]	0.11	0.0387			
[Ar] [Ar, argon]	0.15	0.0421	2.3		
[N-]=[N+]=O [Example N2O, nitrous oxide]	3.6	1.0710	39	7.08	23.14
[Kr] [Kr, krypton]	0.44	0.0856	7.1		
[Xe] [Xe, xenon]	1.9	0.1920			
